In patent US20060235013A1, “Tricyclic azole derivatives” (priority 2005, published 2006):

Columns and labels:
Aurora A kinase = biological target: T1, Aurora A kinase (Homo sapiens, UniProt O14965); assay: IC50 determination for inhibitors of Aurora A (ELISA-type kinase assay, GST-Histone H3 substrate); type: biochemical; conditions: mutant Aurora A kinase, 30 μM ATP, 40 minutes, read-out: IC50 Aurora A kinase inhibition
T1 sequence (O14965 1-403): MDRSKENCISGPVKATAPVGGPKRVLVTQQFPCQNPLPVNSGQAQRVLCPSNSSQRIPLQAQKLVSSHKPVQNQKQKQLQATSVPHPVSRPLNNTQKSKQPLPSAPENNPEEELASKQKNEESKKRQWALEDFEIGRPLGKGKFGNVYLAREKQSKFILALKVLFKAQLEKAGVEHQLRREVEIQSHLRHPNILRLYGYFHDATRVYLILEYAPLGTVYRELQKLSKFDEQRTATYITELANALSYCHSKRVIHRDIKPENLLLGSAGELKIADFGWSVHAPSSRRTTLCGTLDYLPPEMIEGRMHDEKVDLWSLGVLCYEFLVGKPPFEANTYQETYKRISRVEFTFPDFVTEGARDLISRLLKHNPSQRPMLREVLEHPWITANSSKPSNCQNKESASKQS
Experimental: IC50 Determination for Inhibitors of Aurora A
Aurora A is a serine threonine kinase involved in spindle assembly and chromosome segregation.
The assay is a typically ELISA-type assay where substrate (GST-Histone H3) is coupled to the assay-plate and is phosphorylated by the kinase. Phosphorylation is detected by a mouse anti-Phosphopeptid mAb and an HRP-labeled anti-mouse pAb. The assay is validated for IC50-determination.
Kinase activities were measured by Enzyme-Linked Immunosorbent Assay (ELISA): Maxisorp 384-well plates (Nunc) were coated with recombinant fusion protein comprising residues 1-15 of HistoneH3 fused to the N-terminus of Glutathione-S-Transferase. Plates were then blocked with a solution of 1 mg/mL I-block (a highly purified form of casein, Tropix cat. no. T2015) in phosphate-buffered saline. Kinase reactions were carried out in the wells of the ELISA plate by combining an appropriate amount of mutant Aurora A kinase with test compound and 30 μM ATP. The reaction buffer was 10× Kinase Buffer (Cell Signaling cat. no. 9802) supplemented with 1 μg/mL I-block. Reactions were stopped after 40 minutes by addition of 25 mM EDTA. After washing, substrate phosphorylation was detected by addition of anti-phospho-Histone H3 (Ser 10) 6G3 mAb (Cell Signaling cat. no. 9706) and sheep anti-mouse pAb-HRP (Amersham cat. no. NA931V), followed by colorimetric development with TMB (3,3′,5,5′-tetramethylbenzidine from Kirkegaard & Perry Laboratories). After readout of the adsorbance, IC50 values were calculated using a non-linear curve fit (XLfit software (ID Business Solution Ltd., Guilford, Surrey, UK)).

HCT 116 cells = assay: Viability assay in HCT 116 cells (CellTiter-Glo Luminescent Cell Viability Assay); type: cell-based; conditions: HCT 116 human colon carcinoma cells, 5 days (120 h) incubation, ATP luminescence
Experimental: Viability Assay in HCT 116 Cells
A viability assay was performed using the CellTiter-Glo® Luminescent Cell Viability Assay (see Promega Corporation's Technical Bulletin No. 288, pp. 1-11 [revised February 2004] which is hereby incorporated by reference in its entirety). This assay is a homogeneous method of determining the number of viable cells in culture based on quantitation of the ATP present, an indicator of metabolically active cells. The assay is designed for use with multiwell formats, making it ideal for automated high-throughput screening (HTS), cell proliferation and cytotoxicity assays. The homogenous assay procedure involves adding a single reagent (containing luciferase, luciferan substrate, and buffer) directly to cells cultured in serum-supplemented medium. Cell washing, removal of medium and multiple pipetting steps are not required. The system detects as few as 15 cells/well in a 384-well format in 10 minutes after adding reagent and mixing.
The homogeneous “add-mix-measure” format results in cell lysis and generation of a luminescent signal proportional to the amount of ATP present. The amount of ATP is directly proportional to the number of cells present in culture. The above-referenced assay generates a “glow-type” luminescent signal, produced by the luciferase reaction, which has a half-life generally greater than five hours, depending on cell type and medium used. The extended half-life eliminates the need to use reagent injectors and provides flexibility for continuous or batch mode processing of multiple plates. The unique homogeneous format avoids errors that may be introduced by other ATP measurement methods that require multiple steps.
HCT 116 cells (human colon carcinoma, ATCC-No. CCl-247) were cultivated in RPMI 1640 medium with GlutaMAX™ I (cell culture media that contains L-Alanyl-L-Glutamine [a stabilized a form/source of L-Glutamine] from Invitrogen, Cat-No. 61870-010), 2.5% Fetal Calf Serum (FCS, Sigma Cat-No. F4135 (FBS)); 100 Units/ml penicillin/100 μg/ml streptomycin (=Pen/Strep from Invitrogen Cat. No. 15140). For the assay the cells were seeded in 384 well plates, 1000 cells per well, in the same medium. The next day the test compounds were added in various concentrations ranging from 30 μM to 0.0015 μM (10 concentrations, 1:3 diluted). After 5 days the viability assay was done according to the instructions of the manufacturer. In brief: the cell-plate was equilibrated to room temperature for approximately 30 minutes and then reagent (containing luciferase, luciferan substrate, and buffer) was added. The contents were carefully mixed for 15 minutes to induce cell lysis. After 45 minutes the luminescent signal was measured in Victor 2, (scanning multiwell spectrophotometer, Wallac).
Medium: RPMI 1640 with cell culture media containing L-Alanyl-L-Glutamine [GlutaMAX™ I (Invitrogen, Cat-No. 61870)], 5% FCS (Sigma Cat.-No. F4135), Pen/Strep (Invitrogen, Cat No. 15140).
HCT116 (ATCC-No. CCl-247): 1000 cells in 60 μl per well of 384 well plate (Greiner 781098, μClear-plate white)
After seeding incubate plates 24 h at 37° C., 5% CO2
2nd. Day: Induction (Treatment with Compounds, 10 Concentrations):
In order to achieve a final concentration of 30 μM as highest concentration 3.5 μl of 10 mM compound stock solution were added directly to 163 μl media. Then step (d) of the dilution procedure described below, was followed.
In order to achieve the second highest to the lowest concentrations, a serial dilution with dilution steps of 1:3 was followed according to the procedure (a-d) as described here below:
(a) for the second highest concentration add 10 μl of 10 mM stock solution of compound to 20 μl dimethylsulfoxide (DMSO)
(b) dilute 8×1:3 (always 10 μl to 20 μl DMSO) in this DMSO dilution row (results in 9 wells with concentrations from 3333.3 μM to 0.51 μM)
(c) dilute each concentration 1: 47.6 (3.5 μl compound dilution to 163 μl media)
(d) add 10 μl of every concentration to 60 μl media in the cell plate […]

IC50 (Aurora A kinase) [nM]	IC50 (HCT 116 cells) [nM]	Structure (SMILES)
55	100 to 2000	CCN1C(=O)C(C)(C)c2cc3nc(-c4n[nH]c5c4CN(C(=O)c4ccc(F)cc4)CC5)[nH]c3cc21 [Example 16, 5-Ethyl-2-[5-(4-fluoro-benzoyl)-4,5,6,7-tetrahydro-1H-pyrazolo[4,3-c]pyridin-3-yl]-7,7-dimethyl-5,7-dihydro-3H-imidazo[4,5-f]indol-6-one]
14	100 to 2000	CCN1C(=O)C(C)(C)c2cc3nc(-c4n[nH]c5c4CN(S(=O)(=O)c4ccc(F)cc4)CC5)[nH]c3cc21 [Example 17, 5-Ethyl-2-[5-(4-fluoro-benzenesulfonyl)-4,5,6,7-tetrahydro-1H-pyrazolo[4,3-c]pyridin-3-yl]-7,7-dimethyl-5,7-dihydro-3H-imidazo[4,5-f]indol-6-one]
16	100 to 2000	CCN1C(=O)C(C)(C)c2cc3nc(-c4n[nH]c5c4COCC5)[nH]c3cc21 [Example 11, 5-Ethyl-7,7-dimethyl-2-(1,4,6,7-tetrahydro-pyrano[4,3-c]pyrazol-3-yl)-5,7-dihydro-3H-imidazo[4,5-f]indol-6-one]
12	108	CC(C)N1C(=O)C(C)(C)c2cc3nc(-c4n[nH]c5c4CCCC5)[nH]c3cc21 [Example 9, 5-Isopropyl-7,7-dimethyl-2-(4,5,6,7-tetrahydro-1H-indazol-3-yl)-5,7-dihydro-3H-imidazo[4,5-f]indol-6-one]
